Entries after “also recorded” stand apart in the source; their conditions may differ. Where only a bound is given, the exact number is not on record here.

Assay type in all cases: cell-based, mouse
Assay [1] has as its system spleen cells from NR1 TCR transgenic mice. Put plainly: IFNγ secretion by NR1 spleen cells in response to peptide. The conditions noted are these: data not shown.
Assay [2] has as its system T cell clone NR9.2. Put plainly: Epitope mapping: overlapping synthetic 20-mer Cta1 peptides tested for stimulating NR9.2 to secrete IFNγ (ELISA). The conditions noted are these: for IFNγ measured: T cell line NR9.2, synthetic peptides at 25 μM. The text has this:
FIG. 22 is a graph showing T cell clone NR9.2 recognizes the novel T cell antigen Cta1133-152 (SEQ ID NO:2). The antigenic peptide from Cta1 was mapped by testing overlapping 20-mer synthetic peptides for their ability to stimulate NR9.2 to secrete IFNγ. […] Shown below is the protein sequence of Cta1 (SEQ ID NO:1) with […] (SEQ ID NO:2) underlined.
To map more closely the epitope within Cta1 recognized by the NR9.2 T cells, a series of overlapping 20-mer peptides covering the Cta1 sequence for their ability to stimulate NR9.2 to secrete IFNγ were screened (Table 2).
Identification of the T cell antigen Cta1. An expression library of genomic sequences from C. trachomatis serovar D was inserted into a modified form of the pDEST17 vector (Invitrogen) and transformed into the Stb12 strain of E. coli (Invitrogen). Following induction of protein expression, the bacteria were fixed in 0.5% paraformaldehyde and incubated with BMMs. NR9.2 T cells were then added and after 24 h, the supernatant was tested for the level of IFNγ by ELISA (Endogen, Rockford, Ill.). To identify the reactive peptide epitope within Cta1, synthetic 20-mer peptides (MIT Biopolymers Lab, Cambridge, Mass.) were used at a concentration of 25 μM in an IFNγ ELISA (Endogen).

In assay [3] the test system is spleen cells from NR1 TCR transgenic mice. Put plainly: Proliferation of NR1 transgenic splenocytes in response to peptide ([3H]thymidine incorporation). The settings on record: spleen cells from naïve NR1 mice. How it is done:
FIG. 16B is a graph showing proliferation of splenocytes from NR1 transgenic or non-transgenic mice in response to the indicated concentrations of Cta1133-152 (SEQ ID NO:2). Proliferation was measured by [^3H]thymidine incorporation into cells.
To determine whether the NR1 transgenic T cells were specific and responsive to Cta1, we tested the proliferation of transgenic spleen cells in response to Cta1133-152 (see FIG. 14; SEQ ID NO:2).

The test system of assay [4] is T cell clone NR9.2. Put plainly: Screen of E. coli clones expressing C. trachomatis ORFs, cultured with BMMs and T cell clone NR9.2, IFNγ ELISA. How it is done: FIG. 15 is an image showing clones of E. coli expressing individual C. trachomatis ORFs cultured with BMMs and then incubated with the T cell clone NR9.2. […] E. coli expressing Cta1 (encoded by ORF CT788) induced NR9.2 to secrete high levels of IFNγ (>370 ng/ml) whereas E. coli expressing other Chlamydia proteins in the library induced only background levels of IFNγ secretion (<26 ng/ml). The well indicated as Cta1 and ELISA Standards are yellow; other wells are colorless. […] ELISA standards corresponding to high amounts of IFNγ are indicated.
Chlamydia specific CD4+ T cell clone. To identify a Chlamydia-specific TCR for the creation of TCR transgenic mice, we generated a Chlamydia-specific CD4^+ T cell clone named NR9.2. The clone specifically secreted IFNγ when co-cultured with Chlamydia-infected macrophages in an intracellular cytokine staining assay (FIG. 13A). […] A library of proteins expressed by the C. trachomatis ORFs contained in the genome database was screened. […] CT788 was annotated in the published C. trachomatis genome as a predicted periplasmic protein of unknown function (Stephens et al., Science 282:754-759, 1998), and its sequence shares little homology with proteins outside of the Chlamydia genus. CT788 was designated Cta1 (Chlamydia-specific T cell antigen-1).
Identification of the T cell antigen Cta1. […]

Regarding “KGIDPQELWVWKKGMPNWEK (listed as Chlamydia trachomatis) [20-mer peptide, amino acids 133-152 of Cta1 (CT788)]”, the “IFNγ secretion by NR1 spleen cells in response to peptide” value in assay [1] is reported as “secreted high levels of IFNγ”. Besides, in assay [2], the IFNγ measured is recorded as 58.0 (±14.0) ng. In addition, in assay [2] (overlapping 20-mer peptides, listed as Cta1133-152), the “ability to stimulate NR9.2 to secrete IFNγ (in words)” value was “induced NR9.2 to secrete significant levels of IFNγ; also recorded: stimulated NR9.2 to secrete significant levels of IFNγ”. For the same molecule, the “proliferation of NR1 spleen cells in response to peptide” value in assay [3] is recorded as “strong proliferative response”. On to “FYLNKDYTNVGPISIVQLTA [overlapping synthetic 20-mer peptide of Cta1]”, for which the IFNγ measured in assay [2] is given as 0.7 (±0.4) ng.

For the molecule “VKDESPSFLVQSGVAGLEQL [overlapping synthetic 20-mer peptide of Cta1]”, the IFNγ measured in assay [2] is reported as 0.7 (±0.2) ng. For the molecule “GIFAIIFLLILPPLPSSTQD [overlapping synthetic 20-mer peptide of Cta1]”, the IFNγ measured in assay [2] is recorded as 0.4 (±0.2) ng. “QSGVAGLEQLESI [C-terminal overlapping synthetic peptide of Cta1]”: the IFNγ measured in assay [2] was 0.8 (±0.2) ng. On to “LPPLPSSTQDNRSMDQQDSE [overlapping synthetic 20-mer peptide of Cta1]”, for which the IFNγ measured in assay [2] is given as 0.6 (±0.2) ng. For the molecule “GCANKKNRNLIGWFLAGMFF [overlapping synthetic 20-mer peptide of Cta1]”, the IFNγ measured in assay [2] was 0.5 (±0.3) ng. Turning to “WKKGMPNWEKVKNIPELSGT [overlapping synthetic 20-mer peptide of Cta1]”, the IFNγ measured in assay [2] is listed as 1.4 (±0.2) ng. Take “NQIAIDTEKWFYLNKDYTNV [overlapping synthetic 20-mer peptide of Cta1]”: in assay [2], the IFNγ measured is reported as 0.5 (±0.2) ng.

With “GPISIVQLTAFLKECKHSPE [overlapping synthetic 20-mer peptide of Cta1]”, the IFNγ measured in assay [2] is on record as 0.5 (±0.3) ng. “EFLLQNTLEDSEIISIPDTM [overlapping synthetic 20-mer peptide of Cta1]”: the IFNγ measured in assay [2] was 0.6 (±0.2) ng. As to “FLKECKHSPEKGIDPQELWV [overlapping synthetic 20-mer peptide of Cta1]”, the IFNγ measured in assay [2] is 0.5 (±0.4) ng. In the case of “OVA323-336: control peptide from ovalbumin (KISQAVHAAHAEIN) [reference compound]”, the “proliferation of NR1 spleen cells in response to peptide” value in assay [3] is recorded as “did not proliferate”. Consider “LESTSLYKKAGCANKKNRNL [overlapping synthetic 20-mer peptide of Cta1]”, for which the IFNγ measured in assay [2] is listed as 0.4 (±0.2) ng. Take “NRSMDQQDSEEFLLQNTLED [overlapping synthetic 20-mer peptide of Cta1]”: in assay [2], the IFNγ measured is on record as 0.6 (±0.3) ng. As for “VKNIPELSGTVKDESPSFLV [overlapping synthetic 20-mer peptide of Cta1]”, the IFNγ measured in assay [2] is reported as 0.8 (±0.1) ng. “SEIISIPDTMNQIAIDTEKW [overlapping synthetic 20-mer peptide of Cta1]”: in assay [2], the IFNγ measured is 0.6 (±0.2) ng. Take “IGWFLAGMFFGIFAIIFLLI [overlapping synthetic 20-mer peptide of Cta1]”: the IFNγ measured in assay [2] was 0.6 (±0.3) ng.

B1: Cta1: Chlamydia-specific T cell antigen-1, protein encoded by C. trachomatis ORF CT788; predicted periplasmic protein of unknown function (protein, listed as Chlamydia trachomatis)
chain: MNSGMFPFTFFLLYICLGMLTAYLANKKNRNLIGWFLAGMFFGIFAIIFLLILPPLPSSTQDNRSMDQQDSEEFLLQNTLEDSEIISIPDTMNQIAIDTEKWFYLNKDYTNVGPISIVQLTAFLKECKHSPEKGIDPQELWVWKKGMPNWEKVKNIPELSGTVKDE
As to B1, the “stimulation of NR9.2 to secrete IFNγ (in words)” value in assay [4] (894 ORFs screened, E. coli expressing the protein) is “stimulated NR9.2 to secrete significant levels of IFNγ”. In addition, the “IFNγ secreted by NR9.2” value in assay [4] (E. coli expressing the ORF, cultured with BMMs then NR9.2, supernatant IFNγ ELISA) is above 370 ng/mL.
